Read-outs that look alike come from different tables or passages of the source. Bounds are passed on as bounds.

The subject of series [1] is intraperitoneal mouse macrophages (IPΦ). In words: Mammalian cell cytotoxicity (alamarBlue for 5A; PI/Hoechst HCIA for 5D, 5E) in IPΦ. The settings on record: for S.I. IPΦ (CC50 mammalian cells)/(EC50 in L. major-luc promastigotes): IPΦ vs L. major-luc promastigotes. Background: Resazurin is reduced to fluorescent resorufin, in cell work by metabolically active cells.
Assay in series [2]: as above
The following applies: BALB/c, mouse, intraperitoneal mouse macrophages (IPΦ).

Series [3] has as its system L. major-luc promastigotes. As to the kind of experiment: Luciferase assay, viability of L. major-luc promastigotes. The class given is cell-based, Leishmania major. The following applies: 72 h at 28 °C, 2 × 10^6 promastigotes per mL, luciferase activity.
Series [4] relates to monkey kidney cells (LLC-MK2). In words: Mammalian cell cytotoxicity (alamarBlue for 5A; PI/Hoechst HCIA for 5D, 5E) in LLC-MK2. The settings on record: for S.I. LLC-MK2 (CC50 mammalian cells)/(EC50 in L. major-luc promastigotes): LLC-MK2 vs L. major-luc promastigotes.
Assay in series [5]: as above
The following applies: rhesus monkey, LLC-MK2 kidney epithelial cells.

A further series relates to L. major promastigotes. In words: Measurement of reactive oxygen species levels (H2DCFDA). The settings on record: 5D at EC50, 24 h incubation + 7 h reading (31 h), H2DCFDA 10 µM. Format: cell-based, Leishmania major.
Series [6] deals with L. major intracellular amastigotes. In words: High-Content Imaging Assay, proliferation of intracellular amastigotes in infected IPΦ. The class given is cell-based, Leishmania major. The settings on record: for number of infected cells compared to control treated with 1% DMSO: 2.5 µM, infected IPΦ; for number of infected cells compared to control treated with 1% DMSO / inhibition at 0.625 µM: 48 h; for inhibition at 0.625 µM: Leishmania major, read-out: inhibition of the proliferation of intracellular amastigotes.

Details of series [7]: method as in PMID 25365529, PMID 26230675. The following applies: cited from earlier work.
The mark [8] stands for this setting: read-out: EC50 Leishmania major-luc promastigotes.

On to `CCOC(=O)c1c(NC(=O)c2ccc(C(F)(F)F)cc2)sc2c1CC(C)(C)NC2(C)C` [Compound 5A, Ethyl 5,5,7,7-tetramethyl-2-(4-(trifluoromethyl)benzamido)-4,5,6,7-tetrahydrothieno[2,3-c]pyridine-3-carboxylate], for which the “S.I. IPΦ (CC50 mammalian cells)/(EC50 in L. major-luc promastigotes)” value (“S.I. IPΦ” for short) in series [1] is given as 30.50. Further, in series [1] (at 5 and 10 µM, in HCIA of infected IPΦ, 48 h), the “cytotoxicity for IPΦ” value is given as “cytotoxic”. Further, in series [2], the CC50 at 48 h is roughly 10.4 µM. Besides, the EC50 is roughly 0.341 µM in series [3] (setting [8]) and roughly 0.34 µM in series [3] (Leishmania major, 72 h). Moreover, the “S.I. LLC-MK2 (CC50 mammalian cells)/(EC50 in L. major-luc promastigotes)” value in series [4] is 52.85. In series [5], this compound showed a CC50 at 72 h of 17.7 ± 1.12 µM.
On to `CCOC(=O)c1c(NC(=O)c2ccccc2C(F)(F)F)sc2c1CC(C)(C)NC2(C)C` [Compound 5B, Ethyl-5,5,7,7-tetramethyl-2-(2-(trifluoromethyl)benzamido)-4,5,6,7-tetrahydrothieno[2,3-c]pyridine-3-carboxylate], for which the EC50 in series [3] (Leishmania major, 72 h) is 5.98 ± 1.72 µM.
With `CCOC(=O)c1c(NC(=O)c2cccc(C(F)(F)F)c2F)sc2c1CC(C)(C)NC2(C)C` [Compound 5D, Ethyl-2-(2-fluoro-3-(trifluoromethyl)benzamido)-5,5,7,7-tetramethyl-4,5,6,7-tetrahydrothieno[2,3-c]-pyridine-3-carboxylate], the “S.I. IPΦ” value in series [1] was found to be 310. Also, the “selectivity compared with parent compound 5A” value in series [1] (fold higher than 5A) came to 10 fold. The same compound yielded a half-maximal cytotoxic concentration (CC50) at 48 h in series [2] of 27.9 ± 3.19 µM. In addition, in the series on L. major promastigotes, the “ROS levels, fold higher compared to vehicle control 1% DMSO” value was 14.5 fold. Moreover, in series [6], the “number of infected cells compared to control treated with 1% DMSO” value is given as “reduced number of infected cells” and the inhibition at 0.625 µM was greater than 75%. Moreover, the “decrease of the proliferation of the parasite (intracellular amastigotes)” value in series [6] (infected murine macrophages, concentration not given) is listed as 80%. For the same compound, the “toxicity against LLC-MK2” value in series [4] (at concentrations up to 80 µM, 72 h) was “did not display perceptible toxicity”. Moreover, the CC50 at 72 h in series [5] was greater than 80 µM.
In the case of `CCOC(=O)c1c(NC(=O)c2ccc(F)c(C(F)(F)F)c2)sc2c1CC(C)(C)NC2(C)C` [Compound 5E, Ethyl-2-(4-fluoro-3-(trifluoromethyl)benzamido)-5,5,7,7-tetramethyl-4,5,6,7-tetrahydrothieno[2,3-c]-pyridine-3-carboxylate], the “S.I. IPΦ” value in series [1] is given as 21.27. Further, the CC50 at 48 h in series [2] came to 16.6 ± 1.52 µM. Also, in series [3] (Leishmania major, 72 h), the EC50 was found to be 0.78 ± 0.11 µM. Further, in series [6], the “number of infected cells compared to control treated with 1% DMSO” value was “reduced number of infected cells” and the inhibition at 0.625 µM was greater than 50%. Besides, the “S.I. LLC-MK2 (CC50 mammalian cells)/(EC50 in L. major-luc promastigotes)” value in series [4] was determined as 102.56. In series [5], this compound yielded a CC50 at 72 h of 80 ± 4.45 µM.
In turn, `CC1(C)Cc2c(sc(NC(=O)c3cc(Cl)ccc3C(F)(F)F)c2C(=O)O)C(C)(C)N1` [Compound 5F, 2-(5-chloro-2-(trifluoromethyl)benzamido)-5,5,7,7-tetramethyl-4,5,6,7-tetrahydrothieno[2,3-c]pyridine-3-carboxylic acid] returned an EC50 in series [3] (Leishmania major, 72 h) greater than 12.5 µM.
For the compound `CC1(C)Cc2c(sc(NC(=O)c3ccccc3C(F)(F)F)c2C(=O)O)C(C)(C)N1` [Compound 5G, 5,5,7,7-tetramethyl-2-(2-(trifluoromethyl)benzamido)-4,5,6,7-tetrahydrothieno[2,3-c]pyridine-3-carboxylic acid], the EC50 in series [3] (Leishmania major, 72 h) is greater than 12.5 µM.
In series [3] (Leishmania major, 72 h), `COC(=O)c1c(NC(=O)c2ccc(F)c(C(F)(F)F)c2)sc2c1CC(C)(C)NC2(C)C` [Compound 5H, Methyl-2-(4-fluoro-3-(trifluoromethyl)benzamido)-5,5,7,7-tetramethyl-4,5,6,7-tetrahydrothieno[2,3-c]-pyridine3-carboxylate] had an EC50 of 3.05 ± 0.47 µM.
Take `COC(=O)c1c(NC(=O)c2ccccc2C(F)(F)F)sc2c1CC(C)(C)NC2(C)C` [Compound 5I, Methyl-5,5,7,7-tetramethyl-2-(2-(trifluoromethyl)benzamido)-4,5,6,7-tetrahydrothieno[2,3-c]pyridine-3-carboxylate]: the midpoint of the response in series [3] (Leishmania major, 72 h), the EC50, lay at 5.5 ± 1.8 µM.
As for `CCCCCCCCCCCCCCCCOP(=O)([O-])OCC[N+](C)(C)C` [Miltefosine, miltefosine], in series [7], the half-life is listed as 150 h.
Regarding “Ethyl-5,5,7,7-tetramethyl-2-(2-(trifluoromethyl)benzamido)-4,5,6,7-tetrahydrothieno[2,3-c]pyridine-3-carboxylate [Compound 5C]”, the EC50 in series [3] (setting [8]) is 4.73 ± 0.69 µM.

The term CC50 denotes the concentration at which the toxic effect on the cells reaches its halfway point. As usually defined, the EC50 is the concentration that produces a half-maximal response. The half-life is the time needed for the level to fall by half in the phase considered.

Source of the values: PMC6100043, “Development of Thiophene Compounds as Potent Chemotherapies for the Treatment of Cutaneous Leishmaniasis Caused by Leishmania major” (Molecules : A Journal of Synthetic Chemistry and Natural …, 2018).
